Assay results reported in ChEMBL document CHEMBL1201862, “PubChem BioAssay data set” (2004).
Active and inactive are the calls of the source.

Key:
[1] = target: Glyceraldehyde-3-phosphate dehydrogenase (Homo sapiens, UniProt P04406)
[2] = A549 cell cytotoxicity, dose response, cytotoxicity control, plate reader, cherry-pick, antagonist series (AID 743412); format: functional, cell-based
[3] = toxicity toward HepG2 liver cells – cell-based, plate reader, cherry-pick, antagonist series, cytotoxicity control, dose response (AID 743416); format: functional
[4] = target: Disintegrin and metalloproteinase domain-containing protein 17 (Homo sapiens, UniProt P78536); assay: exosite inhibitors of ADAM17, dose response, biochemical (AID 743260)
Sequence of Disintegrin and metalloproteinase domain-containing protein 17 (P78536 whole entry, the tested form may be a part): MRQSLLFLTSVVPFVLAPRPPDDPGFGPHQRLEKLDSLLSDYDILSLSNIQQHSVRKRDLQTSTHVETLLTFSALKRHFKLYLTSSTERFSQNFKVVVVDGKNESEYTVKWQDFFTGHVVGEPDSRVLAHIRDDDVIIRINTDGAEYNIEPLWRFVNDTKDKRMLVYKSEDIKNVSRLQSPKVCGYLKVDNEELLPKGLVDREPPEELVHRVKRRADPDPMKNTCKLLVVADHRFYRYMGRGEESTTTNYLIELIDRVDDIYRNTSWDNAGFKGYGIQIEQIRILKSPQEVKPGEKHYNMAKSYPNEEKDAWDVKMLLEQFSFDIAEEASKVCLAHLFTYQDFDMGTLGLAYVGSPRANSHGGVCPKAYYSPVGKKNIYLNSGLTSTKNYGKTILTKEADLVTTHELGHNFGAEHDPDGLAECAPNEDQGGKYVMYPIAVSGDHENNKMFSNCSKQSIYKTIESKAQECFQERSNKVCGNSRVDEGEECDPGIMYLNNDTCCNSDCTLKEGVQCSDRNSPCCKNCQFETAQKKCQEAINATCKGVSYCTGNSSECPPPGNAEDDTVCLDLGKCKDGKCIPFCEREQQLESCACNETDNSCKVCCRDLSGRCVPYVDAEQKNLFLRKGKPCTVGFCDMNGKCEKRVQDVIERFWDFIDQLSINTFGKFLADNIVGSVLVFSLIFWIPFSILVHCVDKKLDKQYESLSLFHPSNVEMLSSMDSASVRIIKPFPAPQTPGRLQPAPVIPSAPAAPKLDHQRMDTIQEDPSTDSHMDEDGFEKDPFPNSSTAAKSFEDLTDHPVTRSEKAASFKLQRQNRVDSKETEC

[5] = blockade of melanocortin 4 receptor signaling – cell-based, plate reader, cherry pick, counter-screen for LGR2 antagonist project, dose response (AID 743444); format: functional;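 further: transfected HEK 293 cells stimulated with alpha-MSH peptide; potency of inhibitors of the alpha-MSH evoked signal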
[6] = inhibition of ADAM10 peptide cleavage – biochemical, FRET peptide substrate, recombinant human ADAM10, selectivity assay for ADAM17 exosite inhibitor project, dose response (AID 743259);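 further: ADAM10 enzyme cleaving a FRET peptide substrate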
[7] = target: T1, Bcl-2-related protein A1 (Mus musculus, UniProt Q07440); assay: small-molecule antagonists of Bfl-1/BH3 interaction – biochemical, TR-FRET, mouse Bfl-1, confirmation (AID 621);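 further: TR-FRET binding of GST-Bfl-1 to FITC-labelled Bid peptide via terbium antibody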
T1 sequence (Q07440 whole entry): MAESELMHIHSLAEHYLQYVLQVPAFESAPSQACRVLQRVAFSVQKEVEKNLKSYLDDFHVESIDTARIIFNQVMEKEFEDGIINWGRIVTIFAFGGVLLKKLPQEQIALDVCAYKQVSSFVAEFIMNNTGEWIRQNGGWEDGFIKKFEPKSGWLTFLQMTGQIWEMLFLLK

[8] = target: T1, Bcl-2-related protein A1; assay: Bfl-1 binding inhibitors, SAR follow-up, biochemical, fluorescence polarization (AID 1070)
[9] = target: Cytochrome P450 2C9 (Homo sapiens, UniProt P11712); conditions: Potency
Sequence of Cytochrome P450 2C9 (P11712 whole entry): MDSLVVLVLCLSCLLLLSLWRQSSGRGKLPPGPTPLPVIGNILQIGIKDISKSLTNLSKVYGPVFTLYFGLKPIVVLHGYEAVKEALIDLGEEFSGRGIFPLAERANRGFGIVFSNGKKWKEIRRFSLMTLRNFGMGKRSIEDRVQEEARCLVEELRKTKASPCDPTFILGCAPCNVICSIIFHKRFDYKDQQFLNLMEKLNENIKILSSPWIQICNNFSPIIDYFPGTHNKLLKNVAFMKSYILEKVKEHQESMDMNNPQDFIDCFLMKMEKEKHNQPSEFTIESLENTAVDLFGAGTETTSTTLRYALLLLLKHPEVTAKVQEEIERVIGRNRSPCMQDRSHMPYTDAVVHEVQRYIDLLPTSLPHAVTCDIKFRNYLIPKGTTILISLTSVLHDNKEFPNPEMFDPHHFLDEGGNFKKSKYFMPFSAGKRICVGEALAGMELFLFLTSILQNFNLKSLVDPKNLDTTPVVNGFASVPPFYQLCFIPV

[10] = target: Eukaryotic translation initiation factor 4E (Mus musculus, UniProt P63073); assay: blockers of eIF4G binding by eIF4E – biochemical, TR-FRET, dose response (AID 855); format: functional;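 further: potency for disrupting eIF4E binding to eIF4GI seen as loss of FRET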
Sequence of Eukaryotic translation initiation factor 4E (P63073 whole entry): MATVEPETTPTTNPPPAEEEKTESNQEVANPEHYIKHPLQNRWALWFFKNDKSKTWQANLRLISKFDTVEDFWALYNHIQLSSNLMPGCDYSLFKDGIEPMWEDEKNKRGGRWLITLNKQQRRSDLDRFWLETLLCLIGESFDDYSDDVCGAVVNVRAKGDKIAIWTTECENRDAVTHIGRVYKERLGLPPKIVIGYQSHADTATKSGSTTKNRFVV

[11] = viability of uninfected HEp-2 cells – cell-based, HTS, cytotoxicity control for RSV inhibitor project, dose response (AID 2410); format: functional; conditions: human respiratory syncytial virus
[12] = target: T2, fMet-Leu-Phe receptor (Homo sapiens, UniProt P21462); assay: formyl peptide receptor binders – dose response (AID 519); format: functional
T2 sequence (P21462 whole entry): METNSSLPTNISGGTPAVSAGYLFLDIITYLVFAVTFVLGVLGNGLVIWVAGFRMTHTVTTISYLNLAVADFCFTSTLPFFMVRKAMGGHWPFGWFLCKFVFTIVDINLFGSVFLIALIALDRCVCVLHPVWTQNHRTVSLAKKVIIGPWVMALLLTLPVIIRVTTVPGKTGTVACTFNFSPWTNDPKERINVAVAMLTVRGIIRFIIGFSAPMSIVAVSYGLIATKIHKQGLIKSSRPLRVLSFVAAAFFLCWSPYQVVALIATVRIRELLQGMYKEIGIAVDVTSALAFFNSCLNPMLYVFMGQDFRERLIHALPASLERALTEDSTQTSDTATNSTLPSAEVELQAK

[13] = target: Prothrombin (Homo sapiens, UniProt P00734); assay: Thrombin 1536 HTS Dose Response Confirmation. [Related pubchem assays: 1046 (Thrombin 1536 HTS; hits were confirmed in this assay)]; format: functional
[14] = viability loss in Vero cells – cytotoxicity control for Vif-APOBEC3G degradation inhibitor project, dose response (AID 1117358); format: functional; conditions: Vero
[15] = target: T3, Short transient receptor potential channel 4 (Mus musculus, UniProt Q9QUQ5); assay: block of DAMGO-driven TRPC4 calcium entry – cell-based, HEK293 TRPC4/mu-opioid, Fluo-4 calcium, dose response (AID 434942); format: functional;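 further: potency of inhibitors blocking the TRPC4 calcium response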
T3 sequence (Q9QUQ5 whole entry): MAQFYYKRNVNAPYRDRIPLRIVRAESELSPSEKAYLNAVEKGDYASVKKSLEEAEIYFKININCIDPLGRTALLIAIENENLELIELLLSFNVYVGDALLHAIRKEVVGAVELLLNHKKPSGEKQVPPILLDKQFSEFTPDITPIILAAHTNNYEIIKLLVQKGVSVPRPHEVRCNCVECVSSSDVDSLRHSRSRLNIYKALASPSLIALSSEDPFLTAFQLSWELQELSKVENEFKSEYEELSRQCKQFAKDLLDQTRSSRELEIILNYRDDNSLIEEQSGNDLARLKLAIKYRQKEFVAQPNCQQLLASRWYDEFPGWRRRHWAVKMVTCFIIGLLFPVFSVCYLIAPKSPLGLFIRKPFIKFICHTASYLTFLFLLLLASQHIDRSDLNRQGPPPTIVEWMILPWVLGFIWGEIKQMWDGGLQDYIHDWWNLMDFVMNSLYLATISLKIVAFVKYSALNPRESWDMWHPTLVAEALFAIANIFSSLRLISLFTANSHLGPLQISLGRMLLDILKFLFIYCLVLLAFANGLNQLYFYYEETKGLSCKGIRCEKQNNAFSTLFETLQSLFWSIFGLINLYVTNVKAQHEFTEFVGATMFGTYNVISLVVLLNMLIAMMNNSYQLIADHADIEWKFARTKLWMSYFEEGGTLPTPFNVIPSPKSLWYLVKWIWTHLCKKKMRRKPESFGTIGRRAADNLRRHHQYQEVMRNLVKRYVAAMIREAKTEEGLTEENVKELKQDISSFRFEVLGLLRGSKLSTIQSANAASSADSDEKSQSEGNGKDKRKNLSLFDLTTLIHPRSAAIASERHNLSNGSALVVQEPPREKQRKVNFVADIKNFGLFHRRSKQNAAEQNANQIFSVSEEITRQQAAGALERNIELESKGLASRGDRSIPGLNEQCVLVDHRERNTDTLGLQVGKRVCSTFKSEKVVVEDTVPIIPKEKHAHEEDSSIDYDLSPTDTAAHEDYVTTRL

[16] = target: T4, Cytochrome P450 2D6 (Homo sapiens, UniProt P10635)
T4 sequence (P10635 whole entry): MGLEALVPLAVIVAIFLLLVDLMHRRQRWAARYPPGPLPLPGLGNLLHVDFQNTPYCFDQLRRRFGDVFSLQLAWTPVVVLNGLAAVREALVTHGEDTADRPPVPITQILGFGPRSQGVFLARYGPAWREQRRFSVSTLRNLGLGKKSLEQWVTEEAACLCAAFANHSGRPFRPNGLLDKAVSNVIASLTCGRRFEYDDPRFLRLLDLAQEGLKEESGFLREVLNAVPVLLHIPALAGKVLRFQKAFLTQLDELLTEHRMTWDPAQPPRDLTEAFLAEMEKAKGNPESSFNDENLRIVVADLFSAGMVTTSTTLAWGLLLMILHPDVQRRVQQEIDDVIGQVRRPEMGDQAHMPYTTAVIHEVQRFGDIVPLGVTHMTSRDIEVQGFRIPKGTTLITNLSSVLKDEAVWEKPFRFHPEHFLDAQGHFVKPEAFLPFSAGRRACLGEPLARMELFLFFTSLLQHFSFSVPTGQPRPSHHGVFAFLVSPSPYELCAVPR

[17] = target: Cytochrome P450 3A4 (Homo sapiens, UniProt P08684);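 further: CYP3A4 tested as one member of a cytochrome P450 panel screen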
Sequence of Cytochrome P450 3A4 (P08684 whole entry): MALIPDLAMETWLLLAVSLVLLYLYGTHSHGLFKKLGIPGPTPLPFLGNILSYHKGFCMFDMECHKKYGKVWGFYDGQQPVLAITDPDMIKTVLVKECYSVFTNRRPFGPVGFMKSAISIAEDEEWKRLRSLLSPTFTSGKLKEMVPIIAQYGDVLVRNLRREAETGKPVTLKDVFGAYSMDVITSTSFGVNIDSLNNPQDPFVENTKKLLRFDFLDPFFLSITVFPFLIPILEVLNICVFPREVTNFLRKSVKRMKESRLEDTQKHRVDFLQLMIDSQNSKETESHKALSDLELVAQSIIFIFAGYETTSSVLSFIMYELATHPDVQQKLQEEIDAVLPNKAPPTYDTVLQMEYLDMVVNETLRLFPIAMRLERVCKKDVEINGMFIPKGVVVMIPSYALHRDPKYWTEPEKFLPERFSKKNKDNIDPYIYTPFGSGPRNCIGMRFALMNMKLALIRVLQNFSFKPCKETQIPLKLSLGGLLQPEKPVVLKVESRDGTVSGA

[18] = target: T4, Cytochrome P450 2D6; assay: qHTS Assay for Inhibitors and Substrates of Cytochrome P450 2D6. [Related pubchem assays: 410 ]; format: ADME; conditions: read-out: Potency
[19] = target: Paired box protein Pax-8 (Homo sapiens, UniProt Q06710); assay: PAX8 transcriptional activity inhibition in RMG-I – RMG-I cells, luciferase, cherry-pick, dose response (AID 687027); format: functional, cell-based;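 further: luciferase reporter driven by Pax8 target thyroperoxidase promoter measured by SteadyGlo luminescence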
Sequence of Paired box protein Pax-8 (Q06710 whole entry): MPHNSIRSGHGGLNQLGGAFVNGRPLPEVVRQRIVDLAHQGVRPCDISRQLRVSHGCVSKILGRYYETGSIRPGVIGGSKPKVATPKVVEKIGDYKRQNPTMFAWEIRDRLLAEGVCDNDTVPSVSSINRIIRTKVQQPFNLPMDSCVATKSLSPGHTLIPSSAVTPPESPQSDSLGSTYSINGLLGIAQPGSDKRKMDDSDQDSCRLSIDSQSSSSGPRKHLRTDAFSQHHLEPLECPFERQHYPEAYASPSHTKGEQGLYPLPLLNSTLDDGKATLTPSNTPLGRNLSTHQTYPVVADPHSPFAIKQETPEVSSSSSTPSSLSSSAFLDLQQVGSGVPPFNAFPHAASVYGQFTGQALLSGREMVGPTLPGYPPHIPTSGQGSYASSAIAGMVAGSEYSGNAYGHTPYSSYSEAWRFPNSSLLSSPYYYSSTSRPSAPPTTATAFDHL

[20] = OVCAR-3 cell viability loss – plate reader, dry powder samples, PAX8 inhibitor project, dose response (AID 743044); format: functional, cell-based
[21] = IGROV1 cell killing – plate reader, dry powder samples, PAX8 inhibitor project, dose response (AID 743043); format: functional, cell-based; conditions: IGROV-1
[22] = test system: HEK293; assay: EBV LMP1 TES2 canonical NF-kB signalling blockers – cell-based, HEK293, luciferase, cherry-pick, dose response (AID 588343); format: functional; conditions: Homo sapiens
[23] = blockers of bursicon-stimulated LGR2 cAMP reporter – cell-based, HEK293, CRE-luciferase reporter, cherry pick, set 2, dose response (AID 743343); format: functional;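 further: transfected cells were stimulated with diluted bursicon conditioned medium after compound addition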
[24] = HEK-293T viability loss after treatment – luminescence, T-cell screen hits, cytotoxicity control for TCR NF-kB inhibitor project, dose response (AID 489026); format: functional, cell-based;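 further: cells exposed to compound about 14 hours before the viability readout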
[25] = test system: H9c2; assay: cells; format: functional, cell-based; conditions: Rattus norvegicus, H9c2, Myocardium;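 further: confirmatory concentration-response retest of ultra-high-throughput screening hits for modulation of myocardial damage; cell death induced by hydrogen peroxide oxidative stress; compound pretreatment for 60 min then peroxide exposure for 2 h; potency is for protecting the cells against peroxide damage rather than for killing them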
[26] = cells; format: functional, cell-based
[27] = target: T5, Trace amine-associated receptor 1 (Homo sapiens, UniProt Q96RJ0); assay: Fluorescence-based cell-based high throughput dose response assay to identify agonists of the human trace amine associated receptor 1 (TAAR1).; format: functional
T5 sequence (Q96RJ0 whole entry): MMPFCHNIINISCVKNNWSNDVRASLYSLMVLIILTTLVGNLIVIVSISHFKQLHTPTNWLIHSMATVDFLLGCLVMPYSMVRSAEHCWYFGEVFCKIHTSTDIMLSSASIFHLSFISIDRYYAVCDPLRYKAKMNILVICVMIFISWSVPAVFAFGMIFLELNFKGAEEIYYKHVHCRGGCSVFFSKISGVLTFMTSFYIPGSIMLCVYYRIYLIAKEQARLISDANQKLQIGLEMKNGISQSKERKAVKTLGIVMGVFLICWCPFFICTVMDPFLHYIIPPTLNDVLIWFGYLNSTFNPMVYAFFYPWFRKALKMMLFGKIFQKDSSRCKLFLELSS

[28] = target: T5, Trace amine-associated receptor 1; assay: Counterscreen for agonists of the human trace amine associated receptor 1 (hTAAR1): Fluorescence-based cell-based high throughput dose response assay to identify hTAAR1 agonist that also desensitize TAAR1 receptor response.; format: functional
[29] = cells; format: functional, cell-based; remark: listed apart in the source

Sequence of Glyceraldehyde-3-phosphate dehydrogenase (P04406 whole entry): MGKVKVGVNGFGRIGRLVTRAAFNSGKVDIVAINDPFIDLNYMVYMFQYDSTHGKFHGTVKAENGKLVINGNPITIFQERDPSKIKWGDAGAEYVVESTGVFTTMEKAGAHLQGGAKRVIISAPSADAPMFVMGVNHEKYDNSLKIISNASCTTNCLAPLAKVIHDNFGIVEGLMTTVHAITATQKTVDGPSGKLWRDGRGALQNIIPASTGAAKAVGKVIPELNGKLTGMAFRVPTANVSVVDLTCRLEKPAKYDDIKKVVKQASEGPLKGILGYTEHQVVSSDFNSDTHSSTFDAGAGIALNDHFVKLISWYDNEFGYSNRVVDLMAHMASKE

O=C1C2CC=CCC2C(=O)N1c1nc(-c2ccco2)n[nH]1 (configuration not stated)
IC50 [1]: > 100 µM (not active)

CCCCN(Cc1ccccc1)S(=O)(=O)c1cc2c(cc1Br)CC(C)N2C(C)=O (configuration not stated)
AC50 [2]: 28.8 µM (active) | AC50 [3]: 46 µM (active) | IC50 [4]: > 69.5 µM (inactive) | AC50 [5]: 58.1 µM (active) | IC50 [6]: 12.6 µM (inactive)

O=C(C[n+]1ccccc1)Nc1nc2ccccc2s1
IC50 [4]: > 69.5 µM (inactive) | IC50 [6]: > 69.5 µM (inactive)

O=C1C(Cl)=C(Cl)C(=O)N1c1ccc(C(F)(F)F)cc1
IC50 [1]: > 100 µM (not active) | IC50 [7]: 1.46 µM (active) | IC50 [8]: 0.999 µM (active)

CC(C)[C@@H](CC(=O)N[C@@H]1CCCC[C@H]1C(=O)N[C@H](CC(=O)N[C@@H](CCC(=O)O)CC(=O)O)Cc1ccccc1)NC(=O)C[C@H](Cc1ccccc1)NC(=O)[C@@H]1CNCC[C@H]1N
AC50 [9]: 6.31 µM (inconclusive)

O=C(c1ccccc1)N(Nc1ccccc1)c1ccccc1
IC50 [10]: 50 µM (inactive)

Cc1ccc(NC(=O)C2CCCN2S(=O)(=O)c2cccc3cccnc23)cc1F (configuration not stated)
CC50 [11]: 39.4 µM (active) | Ki [12]: > 66.7 µM (inactive)

COCC(=O)n1nc(-c2ccccc2)nc1NCc1ccccc1
IC50 [13]: 0.246 µM (active)

COc1ccc2c(=O)c(N3C(=O)c4ccccc4C3=O)c(C)oc2c1
Ki [12]: > 66.7 µM (inactive)

O=c1c2ccccc2c(-c2ccccc2)nn1-c1cc(Cl)ccc1[N+](=O)[O-]
CC50 [14]: > 40 µM (active)

CC(C)(C)c1cc2cccnc2n1Cc1ccccc1
EC50 [15]: 2.11 µM (active) | AC50 [16]: 0.501 µM (inconclusive) | AC50 [17]: 15.8 µM (inconclusive)

c1ccc(Nc2cc(-c3ccoc3)ncn2)cc1
AC50 [18]: 20 µM (inconclusive)

COc1cccc(S(=O)(=O)Nc2ccc3c(c2)[C@@H]2C[C@@H](CC(=O)NCc4ccc(Cl)cc4)O[C@@H](CO)[C@@H]2O3)c1
AC50 [19]: 3.36 µM (active) | AC50 [20]: 25.9 µM (active) | AC50 [21]: 60.3 µM (active)

O=C(Nc1nc2cc3c(cc2s1)OCO3)c1ccco1
IC50 [13]: 9.57 µM (active) | AC50 [22]: 1.57 µM (active) | AC50 [2]: > 52 µM (inactive) | AC50 [3]: > 52 µM (inactive) | AC50 [23]: 4.2 µM (active) | AC50 [5]: 4.79 µM (active)

C=CC1=C(C)C2=NC/1=C\C1=[N+]3[Zn-2][N+]4=C(/C=C5N=C(/C=C3/C(CCC(=O)O)=C1C)C(CCC(=O)O)=C\5C)C(C)=C(C=C)/C4=C/2
AC50 [18]: 25.1 µM (inconclusive) | AC50 [9]: 39.8 µM (inconclusive)

Cc1ccc(C(=O)OC2CCS(=O)(=O)c3sccc32)cc1 (configuration not stated)
CC50 [14]: 32.7 µM (active)

O=C1C(Cl)=C(N2CCOCC2)C(=O)N1c1cc(Cl)cc(Cl)c1
IC50 [1]: > 10 µM (inconclusive) | IC50 [7]: 1.33 µM (active) | IC50 [8]: 1.63 µM (active)

CN1C(=O)CSc2ccc(NC(=O)NCc3cccnc3)cc21
CC50 [14]: > 40 µM (active)

COc1ccc(NS(=O)(=O)c2cc(NC(=O)c3cccs3)ccc2N2CCCC2)cc1
IC50 [4]: > 69.5 µM (inactive) | IC50 [6]: > 69.5 µM (inactive)

O=C(C1=C(O)C(=O)N(c2ncccn2)C1c1ccc(Cl)cc1)c1ccco1 (configuration not stated)
Ki [12]: > 66.7 µM (inactive)

C=C1C(=O)O[C@H]2C[C@@]3(C)CCCC(=C)[C@@H]3C[C@H]12
AC50 [18]: 10 µM (inconclusive) | AC50 [9]: 39.8 µM (inconclusive)

COc1ccc(-n2nnnc2-c2ccccc2)cc1
IC50 [24]: > 80 µM (inactive) | CC50 [14]: > 40 µM (active)

CC1Oc2ccccc2N(Cc2ccccc2Cl)C1=O (configuration not stated)
Ki [12]: > 66.7 µM (inactive)

COc1ccc2nc(O)c(-c3nnn(-c4ccc(F)cc4)n3)cc2c1
IC50 [7]: > 100 µM (not active) | IC50 [8]: > 100 µM (not active) | IC50 [25]: 37.1 µM (inactive)

Cc1cc(N/N=C/c2ccccc2O)nc(N2CCOCC2)n1
IC50 [26]: > 29.9 µM (inactive) | EC50 [27]: > 29.9 µM (inactive) | IC50 [28]: 2.52 µM (active) | EC50 [29]: > 29.9 µM (inactive)

COc1cc(SC)ccc1C(=O)NCCOc1ccc(C)c(C)c1
IC50 [4]: > 69.5 µM (inactive) | IC50 [6]: 27.5 µM (inactive)

Clc1ccc(-n2nnc(-c3cccnc3)n2)cn1
IC50 [7]: > 100 µM (not active) | IC50 [8]: > 100 µM (not active)

CCCCCCCCN1C(=O)[C@@H](CC(=O)NCCc2ccccc2OC)C[C@@]2(C(=O)OC)C1=C[C@H](C1CCCC1)O[C@@H]2C
IC50 [26]: > 29.9 µM (inactive) | EC50 [27]: 3.22 µM (active) | IC50 [28]: 8.54 µM (active) | EC50 [29]: > 29.9 µM (inactive)

COc1cccc(CN(C)C(=O)CCc2nnc(-c3ccsc3)o2)c1
IC50 [13]: > 50 µM (not active)
